According to patent publication US9469650B2, “Melampomagnolide B derivatives” (BOARD OF TRUSTEES OF THE UNIVERSITY OF ARKANSAS, priority 2013, dated 2016):
Read-outs that look alike come from different tables or passages of the source.

How the values were obtained:
SF-295 = assay: panel of 60 human tumor cell lines, growth inhibition (CNS Cancer)
ACHN = assay: panel of 60 human tumor cell lines, growth inhibition (Renal Cancer)
T-47D = assay: panel of 60 human tumor cell lines, growth inhibition (Breast Cancer); conditions: for Percent Growth: T-47D
NCI-H226 = assay: panel of 60 human tumor cell lines, growth inhibition (Non-Small Cell Lung Cancer)
CAKI-1 = assay: panel of 60 human tumor cell lines, growth inhibition (Renal Cancer)
SNB-75 = assay: panel of 60 human tumor cell lines, growth inhibition (CNS Cancer)
SW-620 = assay: panel of 60 human tumor cell lines, growth inhibition (Colon Cancer); conditions: for Percent Growth: SW-620
SK-MEL-28 = assay: panel of 60 human tumor cell lines, growth inhibition (Melanoma)
M14 = assay: as above
HS 578T = assay: panel of 60 human tumor cell lines, growth inhibition (Breast Cancer); conditions: for Percent Growth: HS 578T
HCC-2998 = assay: panel of 60 human tumor cell lines, growth inhibition (Colon Cancer); conditions: for Percent Growth: HCC-2998
LOX IMVI = assay: panel of 60 human tumor cell lines, growth inhibition (Melanoma)
SR = assay: panel of 60 human tumor cell lines, growth inhibition (Leukemia)
UO-31 = assay: panel of 60 human tumor cell lines, growth inhibition (Renal Cancer)
SNB-19 = assay: panel of 60 human tumor cell lines, growth inhibition (CNS Cancer)
SF-268 = assay: as above
MOLT-4 = assay: panel of 60 human tumor cell lines, growth inhibition (Leukemia)

## C=C1C(=O)O[C@H]2[C@H]1CC/C(COC(=O)CCC(=O)NCc1ccc(Cl)nc1)=C\CC[C@@]1(C)O[C@@H]21 [JVM 96]
SF-295; Homo sapiens, SF-295
  GI50: 16.6 µM
SF-295; Homo sapiens, SF-295, read-out: LC50
  CC50: 84.2 µM
SF-295; Homo sapiens, SF-295, read-out: TGI
  IC (TGI): 37.4 µM
SF-295; SF-295, Log10 Concentration −4.0
  Percent Growth: −61%
SF-295; SF-295, Log10 Concentration −5.0
  Percent Growth: 81%
SF-295; SF-295, Log10 Concentration −6.0
  Percent Growth: 96%
SF-295; SF-295, Log10 Concentration −7.0
  Percent Growth: 91%
SF-295; SF-295, Log10 Concentration −8.0
  Percent Growth: 93%
HL-60(TB); Log10 Concentration −4.0
  Percent Growth: −48%
HL-60(TB); Log10 Concentration −5.0
  Percent Growth: −5%
HL-60(TB); Log10 Concentration −6.0
  Percent Growth: 76%
HL-60(TB); Log10 Concentration −7.0
  Percent Growth: 78%
HL-60(TB); Log10 Concentration −8.0
  Percent Growth: 91%
ACHN; Homo sapiens
  GI50: 4.45 µM
ACHN; Homo sapiens, read-out: LC50
  CC50: 51.9 µM
ACHN; Homo sapiens, read-out: TGI
  IC (TGI): 17.9 µM
ACHN; Log10 Concentration −4.0
  Percent Growth: −81%
ACHN; Log10 Concentration −5.0
  Percent Growth: 27%
ACHN; Log10 Concentration −6.0
  Percent Growth: 92%
ACHN; Log10 Concentration −7.0
  Percent Growth: 94%
ACHN; Log10 Concentration −8.0
  Percent Growth: 98%
T-47D; Homo sapiens, T47D
  GI50: 3.52 µM
T-47D; Homo sapiens, T47D, read-out: LC50
  CC50: 55.9 µM
T-47D; Homo sapiens, T47D, read-out: TGI
  IC (TGI): 14.4 µM
T-47D; Log10 Concentration −4.0
  Percent Growth: −71%
T-47D; Log10 Concentration −5.0
  Percent Growth: 13%
T-47D; Log10 Concentration −6.0
  Percent Growth: 94%
T-47D; Log10 Concentration −7.0
  Percent Growth: 100%
T-47D; Log10 Concentration −8.0
  Percent Growth: 100%
NCI-H226; Homo sapiens, NCI-H226
  GI50: 12.7 µM
NCI-H226; Homo sapiens, NCI-H226, read-out: TGI
  IC (TGI): 32 µM
NCI-H226; NCI-H226, Log10 Concentration −4.0
  Percent Growth: −61%
NCI-H226; NCI-H226, Log10 Concentration −5.0
  Percent Growth: 63%
NCI-H226; NCI-H226, Log10 Concentration −6.0
  Percent Growth: 94%
NCI-H226; NCI-H226, Log10 Concentration −7.0
  Percent Growth: 97%
NCI-H226; NCI-H226, Log10 Concentration −8.0
  Percent Growth: 96%
CAKI-1; CAKI-1, Log10 Concentration −4.0
  Percent Growth: −93%
CAKI-1; CAKI-1, Log10 Concentration −5.0
  Percent Growth: 41%
CAKI-1; CAKI-1, Log10 Concentration −6.0
  Percent Growth: 87%
CAKI-1; CAKI-1, Log10 Concentration −7.0
  Percent Growth: 85%
CAKI-1; CAKI-1, Log10 Concentration −8.0
  Percent Growth: 93%
CAKI-1; Homo sapiens, CAKI-1
  GI50: 6.37 µM
CAKI-1; Homo sapiens, CAKI-1, read-out: LC50
  CC50: 47.9 µM
CAKI-1; Homo sapiens, CAKI-1, read-out: TGI
  IC (TGI): 20.3 µM
SNB-75; Homo sapiens, SNB-75
  GI50: 4.59 µM
SNB-75; Homo sapiens, SNB-75, read-out: LC50
  CC50: 47 µM
SNB-75; Homo sapiens, SNB-75, read-out: TGI
  IC (TGI): 20.1 µM
SNB-75; SNB-75, Log10 Concentration −4.0
  Percent Growth: −94%
SNB-75; SNB-75, Log10 Concentration −5.0
  Percent Growth: 41%
SNB-75; SNB-75, Log10 Concentration −6.0
  Percent Growth: 68%
SNB-75; SNB-75, Log10 Concentration −7.0
  Percent Growth: 69%
SNB-75; SNB-75, Log10 Concentration −8.0
  Percent Growth: 80%
SW-620; Homo sapiens, SW-620, SW-620
  GI50: 4.35 µM
SW-620; Homo sapiens, SW-620, read-out: LC50
  CC50: 64.9 µM
SW-620; Homo sapiens, SW-620, read-out: TGI
  IC (TGI): 17.8 µM
SW-620; Log10 Concentration −4.0
  Percent Growth: −67%
SW-620; Log10 Concentration −5.0
  Percent Growth: 22%
SW-620; Log10 Concentration −6.0
  Percent Growth: 99%
SW-620; Log10 Concentration −7.0
  Percent Growth: 99%
SW-620; Log10 Concentration −8.0
  Percent Growth: 99%
SK-MEL-28; Homo sapiens, SK-MEL-28
  GI50: 3.44 µM
SK-MEL-28; Homo sapiens, SK-MEL-28, read-out: LC50
  CC50: 46 µM
SK-MEL-28; Homo sapiens, SK-MEL-28, read-out: TGI
  IC (TGI): 14.8 µM
SK-MEL-28; SK-MEL-28, Log10 Concentration −4.0
  Percent Growth: −84%
SK-MEL-28; SK-MEL-28, Log10 Concentration −5.0
  Percent Growth: 17%
SK-MEL-28; SK-MEL-28, Log10 Concentration −6.0
  Percent Growth: 8.8. Percent
SK-MEL-28; SK-MEL-28, Log10 Concentration −7.0
  Percent Growth: 91%
SK-MEL-28; SK-MEL-28, Log10 Concentration −8.0
  Percent Growth: 92%
M14; Homo sapiens, M14
  GI50: 5.75 µM
M14; Homo sapiens, M14, read-out: LC50
  CC50: 50.3 µM
M14; Homo sapiens, M14, read-out: TGI
  IC (TGI): 19.5 µM
M14; M14, Log10 Concentration −4.0
  Percent Growth: −86%
M14; M14, Log10 Concentration −5.0
  Percent Growth: 35%
M14; M14, Log10 Concentration −6.0
  Percent Growth: 96%
M14; M14, Log10 Concentration −7.0
  Percent Growth: 91%
M14; M14, Log10 Concentration −8.0
  Percent Growth: 98%
HS 578T; Log10 Concentration −4.0
  Percent Growth: −5%
HS 578T; Log10 Concentration −5.0
  Percent Growth: 61%
HS 578T; Log10 Concentration −6.0
  Percent Growth: 94%
HS 578T; Log10 Concentration −7.0
  Percent Growth: 101%
HS 578T; Log10 Concentration −8.0
  Percent Growth: 95%
HS 578T; Homo sapiens, Hs-578T
  GI50: 14.7 µM
HS 578T; Homo sapiens, Hs-578T, read-out: LC50
  CC50: > 100 µM
HS 578T; Homo sapiens, Hs-578T, read-out: TGI
  IC (TGI): 63.7 µM
HCC-2998; Log10 Concentration −4.0
  Percent Growth: −90%
HCC-2998; Log10 Concentration −5.0
  Percent Growth: 76%
HCC-2998; Log10 Concentration −6.0
  Percent Growth: 108%
HCC-2998; Log10 Concentration −7.0
  Percent Growth: 101%
HCC-2998; Log10 Concentration −8.0
  Percent Growth: 99%
HCC-2998; Homo sapiens, HCC 2998
  GI50: 14.4 µM
HCC-2998; Homo sapiens, HCC 2998, read-out: LC50
  CC50: 57.3 µM
HCC-2998; Homo sapiens, HCC 2998, read-out: TGI
  IC (TGI): 28.7 µM
LOX IMVI; Homo sapiens
  GI50: 4.74 µM
LOX IMVI; Homo sapiens, read-out: LC50
  CC50: 47 µM
LOX IMVI; Homo sapiens, read-out: TGI
  IC (TGI): 16.7 µM
LOX IMVI; Log10 Concentration −4.0
  Percent Growth: −86%
LOX IMVI; Log10 Concentration −5.0
  Percent Growth: 25%
LOX IMVI; Log10 Concentration −6.0
  Percent Growth: 103%
LOX IMVI; Log10 Concentration −7.0
  Percent Growth: 98%
LOX IMVI; Log10 Concentration −8.0
  Percent Growth: 98%
SR; Homo sapiens
  GI50: 2.59 µM
SR; Homo sapiens, read-out: LC50
  CC50: > 100 µM
SR; Homo sapiens, read-out: TGI
  IC (TGI): 18 µM
SR; Log10 Concentration −4.0
  Percent Growth: −35%
SR; Log10 Concentration −5.0
  Percent Growth: 12%
SR; Log10 Concentration −6.0
  Percent Growth: 77%
SR; Log10 Concentration −7.0
  Percent Growth: 90%
SR; Log10 Concentration −8.0
  Percent Growth: 84%
UO-31; Homo sapiens, UO-31
  GI50: 10.2 µM
UO-31; Homo sapiens, UO-31, read-out: LC50
  CC50: 53.7 µM
UO-31; Homo sapiens, UO-31, read-out: TGI
  IC (TGI): 23.4 µM
UO-31; UO-31, Log10 Concentration −4.0
  Percent Growth: −87%
UO-31; UO-31, Log10 Concentration −5.0
  Percent Growth: 51%
UO-31; UO-31, Log10 Concentration −6.0
  Percent Growth: 92%
UO-31; UO-31, Log10 Concentration −7.0
  Percent Growth: 88%
UO-31; UO-31, Log10 Concentration −8.0
  Percent Growth: 87%
SNB-19; Homo sapiens, SNB-19
  GI50: 15.6 µM
SNB-19; Homo sapiens, SNB-19, read-out: LC50
  CC50: > 100 µM
SNB-19; Homo sapiens, SNB-19, read-out: TGI
  IC (TGI): 42.3 µM
SNB-19; SNB-19, Log10 Concentration −4.0
  Percent Growth: −43%
SNB-19; SNB-19, Log10 Concentration −5.0
  Percent Growth: 72%
SNB-19; SNB-19, Log10 Concentration −6.0
  Percent Growth: 88%
SNB-19; SNB-19, Log10 Concentration −7.0
  Percent Growth: 96%
SNB-19; SNB-19, Log10 Concentration −8.0
  Percent Growth: 93%
SF-268; Homo sapiens, SF-268
  GI50: 10.5 µM
SF-268; Homo sapiens, SF-268, read-out: LC50
  CC50: 67.6 µM
SF-268; Homo sapiens, SF-268, read-out: TGI
  IC (TGI): 26.7 µM
SF-268; SF-268, Log10 Concentration −4.0
  Percent Growth: −71%
SF-268; SF-268, Log10 Concentration −5.0
  Percent Growth: 52%
SF-268; SF-268, Log10 Concentration −6.0
  Percent Growth: 97%
SF-268; SF-268, Log10 Concentration −7.0
  Percent Growth: 98%
SF-268; SF-268, Log10 Concentration −8.0
  Percent Growth: 97%
MOLT-4; Homo sapiens, MOLT-4
  GI50: 6.22 µM
MOLT-4; Homo sapiens, MOLT-4, read-out: LC50
  CC50: > 100 µM
MOLT-4; Homo sapiens, MOLT-4, read-out: TGI
  IC (TGI): 38.2 µM
MOLT-4; MOLT-4, Log10 Concentration −4.0
  Percent Growth: −25%
MOLT-4; MOLT-4, Log10 Concentration −5.0
  Percent Growth: 34%
MOLT-4; MOLT-4, Log10 Concentration −6.0
  Percent Growth: 110%
MOLT-4; MOLT-4, Log10 Concentration −7.0
  Percent Growth: 105%
MOLT-4; MOLT-4, Log10 Concentration −8.0
  Percent Growth: 97%
